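How tested: cells in 96-well plates exposed to compound for 48 hours at five concentrations. The concentration for 50% growth inhibition is given as GI50. TGI: concentration producing complete growth inhibition.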
What was measured:
Test in all cases: NCI tumour cell line growth inhibition, 48 h
UACC-62 melanoma = tested on: UACC-62 melanoma
LOX IMVI melanoma = tested on: LOX IMVI melanoma
HT29 colon = tested on: HT29 colon
SF-539 CNS = tested on: SF-539 CNS
CAKI-1 renal = tested on: CAKI-1 renal
KM12 colon = tested on: KM12 colon
M14 melanoma = tested on: M14 melanoma
MDA-N = tested on: MDA-N
K-562 leukemia = tested on: K-562 leukemia
HCT-116 colon = tested on: HCT-116 colon
PC-3 prostate = tested on: PC-3 prostate
NCI-H226 lung = tested on: NCI-H226 lung

Compound	TGI (UACC-62 melanoma) [µM]	TGI (LOX IMVI melanoma) [µM]	TGI (HT29 colon) [µM]	TGI (SF-539 CNS) [µM]	TGI (CAKI-1 renal) [µM]	TGI (KM12 colon) [µM]	TGI (M14 melanoma) [µM]	TGI (MDA-N) [µM]	TGI (K-562 leukemia) [µM]	TGI (HCT-116 colon) [µM]	TGI (PC-3 prostate) [µM]	TGI (NCI-H226 lung) [µM]	GI50 (HCT-116 colon) [µM]
O=C(Cc1ccccc1)NNc1nc(NNC(=O)c2ccncc2)nc(Nc2cccc(Cl)c2)n1	> 10	> 10	> 10	> 10	> 10	> 10	> 10	> 10	> 10	–	–	–	–
CC(C)(C)OC(=O)N(CCNS(=O)(=O)c1cccc2cnccc12)CCC(=O)ON1C(=O)CCC1=O	> 100	> 100	> 100	–	–	–	> 100	–	> 100	> 100	> 100	> 100	–
NC(CCCCNC(=O)CNC(=O)OCc1ccccc1)C(=O)NC(CCCCNC(=O)CNC(=O)OCc1ccccc1)C(=O)NC(CCCCNC(=O)CNC(=O)OCc1ccccc1)C(=O)NC(CCCCNC(=O)CNC(=O)OCc1ccccc1)C(=O)NC(CCCCNC(=O)CNC(=O)OCc1ccccc1)C(=O)NC(CCCCNC(=O)CNC(=O)OCc1ccccc1)C(=O)O (configuration not stated)	> 75	> 75	> 75	–	> 75	–	> 75	–	> 75	> 75	> 75	> 75	–
CCOc1ccc(NCC2CC/C(=C\c3ccc(O)cc3)C2=O)cc1 (configuration not stated)	37.7	16.8	33	36.1	34.3	26.8	36	–	> 100	23.6	30.7	> 61.2	–
Cc1ccc2c(C)c3ccc4ccccc4c3c[n+]2c1	27.4	99.8	> 100	33.7	> 100	14.6	33.9	–	> 100	> 89.7	–	25.4	–
c1ccc(C2OCCO2)c(OCCOc2cc(OCCOc3ccccc3C3OCCO3)c(OCCOc3ccccc3C3OCCO3)cc2OCCOc2ccccc2C2OCCO2)c1	37.6	> 100	> 100	32.7	> 100	> 100	> 100	–	> 100	44.2	–	47.3	–
O=C(CNC(=O)OCc1ccccc1)NCCCCC(NC(=O)OCc1ccccc1)C(=O)NC(CCCCNC(=O)CNC(=O)OCc1ccccc1)C(=O)OCc1ccccc1 (configuration not stated)	> 62.5	> 62.5	> 62.5	–	> 62.5	–	> 62.5	–	> 62.5	> 62.5	> 62.5	> 62.5	–
CCOc1cc2c(cc1O)/C(=N/NS(=O)(=O)c1ccc(C)cc1)C[C@@H]1[C@@H]2CC[C@]2(C)[C@@H](O)CC[C@@H]12	–	> 100	> 100	65.6	> 100	> 100	> 100	–	> 100	> 100	> 100	68.7	6.67

From PubChem BioAssay (NCI)
